{"source": "patent US4045488A", "about": "“Aminophenyltetralin compounds” (Pfizer Inc., priority 1976, dated 1977)", "key": {"[1]": {"test_system": "spontaneous motor activity", "experiment": "spontaneous motor activity in mice (circular actophotometers, activity counts)", "type": "in vivo, mouse", "settings": "for hyperactive response: same conditions, 0.32-32 mg./kg. i.p.", "description": "(§1) On the other hand, the activity of the compounds of the present invention, as psychomotor stimulants, is based on a variety of tests, including (1) a study of their motor activity in mice and (2) a measurement of their ability to influence the loss of avoidance behavior in rats trained on a non-discriminated (Sidman) avoidance schedule.\nA total of seven mice was employed at each dose level tested (viz., at 0.32, 1.0, 3.2, 10 and 32 mg./kg., i.p., respectively) and these mice were separated one to an activity cage. After an initial 1/2 hour exposure period (for acclimation purposes), each animal in the cage was treated with a sample of the drug intraperitoneally and immediately thereafter returned to said cage, with activity counts every 1/2 hour being recorded from that point on."}, "[2]": {"experiment": "psychotropic (antidepressant, psychomotor stimulant) activity and side effects of the compounds, general statements", "type": "in vivo", "settings": "general statement; compounds and their hydrochloride acid addition salts"}, "[3]": {"test_system": "non-discriminated (Sidman) avoidance behavior", "experiment": "non-discriminated (Sidman) avoidance behavior in rats, response rates", "type": "in vivo, rat", "settings": "5 and 10 mg./kg. i.p.", "source_text": "as §1\nEight mature male rats were trained in Lehigh Valley automatic multiple-operant conditioning chambers to avoid a 2.0 mA electric shock that would last for 0.75 second, or terminate sooner if the rat lever became activated during the shock. In these tests, lever presses postponed the onset of shock for an initial period of 30 seconds, while only 10 seconds elapsed between shocks if no intervening response was elicited. The rats were run for a 40-minute control period before receiving the drug and then for approximately 2.5 hours after each treatment."}}, "note": "Structures can show the parent of a compound that is named as a salt.", "data": [{"smiles": "CN[C@@H]1CC[C@@H](c2ccccc2)c2ccccc21", "note": "(relative stereo) [Trans-isomer of Example IV, trans-dl-N-methyl-4-phenyl-1,2,3,4-tetrahydro-1-naphthylamine hydrochloride]", "values": [{"measurement": "time course (duration) of effect", "setting": "[1]; after 32 mg./kg.", "value": "especially long-lived"}]}, {"smiles": "N[C@@H]1CC[C@@H](c2ccccc2)c2ccccc21", "note": "(relative stereo) [trans-dl-4-phenyl-1,2,3,4-tetrahydro-1-naphthylamine]", "values": [{"measurement": "antidepressant activity", "setting": "[2]", "value": "markedly high degree of antidepressant activity"}]}, {"smiles": "CN(C)[C@@H]1CC[C@@H](c2ccccc2)c2ccccc21", "note": "(relative stereo) [trans-dl-N,N-dimethyl-4-phenyl-1,2,3,4-tetrahydro-1-naphthylamine]", "values": [{"measurement": "antidepressant activity", "setting": "[2]", "value": "markedly high degree of antidepressant activity"}]}, {"smiles": "c1ccc([C@@H]2CC[C@@H](NC3CC3)c3ccccc32)cc1", "note": "(relative stereo) [trans-dl-N-cyclopropyl-4-phenyl-1,2,3,4-tetrahydro-1-naphthylamine]", "values": [{"measurement": "antidepressant activity", "setting": "[2]", "value": "markedly high degree of antidepressant activity"}]}, {"smiles": "CCN[C@@H]1CC[C@@H](c2ccccc2)c2ccccc21", "note": "(relative stereo) [trans-dl-N-ethyl-4-phenyl-1,2,3,4-tetrahydro-1-naphthylamine]", "values": [{"measurement": "antidepressant activity", "setting": "[2]", "value": "markedly high degree of antidepressant activity"}]}, {"smiles": "CC(C)N[C@@H]1CC[C@@H](c2ccccc2)c2ccccc21", "note": "(relative stereo) [trans-dl-N-isopropyl-4-phenyl-1,2,3,4-tetrahydro-1-naphthylamine]", "values": [{"measurement": "antidepressant activity", "setting": "[2]", "value": "markedly high degree of antidepressant activity"}]}, {"smiles": "CN[C@@H]1CC[C@@H](c2ccccc2)c2ccccc21", "note": "(relative stereo) [trans-dl-N-methyl-4-phenyl-1,2,3,4-tetrahydro-1-naphthylamine]", "values": [{"measurement": "antidepressant activity", "setting": "[2]", "value": "markedly high degree of antidepressant activity"}]}, {"smiles": "CN[C@@H]1CC[C@@H](c2ccccc2)c2ccccc21", "note": "[Trans-d-isomer of Example III, trans-d-N-Methyl-4-phenyl-1,2,3,4-tetrahydro-1-naphthylamine as the hydrochloride]", "values": [{"measurement": "effect on activity counts compared with d-amphetamine sulfate and methylphenidate", "setting": "[1]; 10 mg./kg. i.p. versus d-amphetamine sulfate 3.2 mg./kg. and methylphenidate 10 mg./kg.", "value": "more pronounced than that of d-amphetamine sulfate at 3.2 mg./kg. and surpassing even that of methylphenidate at 10 mg./kg."}, {"measurement": "effect on activity counts", "setting": "[1]; 10 mg./kg. i.p., 30-60 minutes after treatment", "value": "markedly elevated the activity counts"}, {"measurement": "time course (duration) of effect", "setting": "[1]; 10 mg./kg. versus d-amphetamine sulfate 3.2 mg./kg.", "value": "even more prolonged in its effect than did that of d-amphetamine sulfate"}, {"measurement": "duration of drug effect after administration", "setting": "[3]", "value": "approximately one and a half"}, {"measurement": "start of drug effect", "setting": "[3]", "value": "≤ 20", "unit": "min"}, {"measurement": "effect on response rates", "setting": "[3]; in four out of eight rats", "value": "moderate to marked increase in response rates"}, {"measurement": "increase of response rates over normal pre-drug control levels", "setting": "[3]; in four out of eight rats", "value": "2-6 times"}, {"measurement": "increase of response rates over pre-drug control levels", "setting": "[3]; in two other rats", "value": "about 1.5 times"}]}, {"smiles": "CN[C@H]1CC[C@H](c2ccccc2)c2ccccc21", "note": "[Trans-l-isomer of Example III, trans-l-N-methyl-4-phenyl-1,2,3,4-tetrahydro-1-naphthylamine hydrochloride]", "values": [{"measurement": "stimulant effect", "setting": "[1]; tested at 10 and 32 mg./kg. i.p.", "value": "little evidence of a stimulant effect"}]}, {"smiles": "CNCCCN1c2ccccc2CCc2ccccc21", "note": "[desmethylimipramine, reference compound]", "values": [{"measurement": "hyperactive response", "setting": "[1]", "value": "failed to elicit any hyperactive response whatsoever"}]}, {"smiles": "CNCCCC1c2ccccc2C=Cc2ccccc21", "note": "[protriptlyine, reference compound]", "values": [{"measurement": "hyperactive response", "setting": "[1]", "value": "failed to elicit any hyperactive response whatsoever"}]}, {"smiles": "CN[C@@H]1CC[C@@H](c2ccccc2)c2ccccc21", "note": "[trans-d-N-methyl-4-phenyl-1,2,3,4-tetrahydro-1-naphthylamine]", "values": [{"measurement": "antidepressant activity", "setting": "[2]", "value": "markedly high degree of antidepressant activity"}]}]}
